Test results reported in PubChem BioAssay AID1626 (SRMLSC, 2009).

Tested on: M. tuberculosis H37Rv growth inhibition
Experiment: M. tuberculosis H37Rv growth inhibitors, H37Rv strain (AID 1626)
Conditions: for IC90: measured here: IC90 against H37Rv; for CC50: measured here: Vero cell cytotoxicity

SMILES	IC50 [µM]	IC90 [µM]	CC50 [µM]
CCCCCc1cc(=O)oc2c(C(CCN(CC)CC)c3ccc(N(C)C)cc3)c(OC)cc(OC)c12 (centres undefined)	4.06	5.28	14.9
O=C(Nc1nnc(-c2ccc3c(c2)CCCC3)o1)c1ccc(Cl)cc1Cl	0.625	0.962	> 40
Cn1c2c(c(=O)n(C)c1=O)C(C(F)(F)F)(C(F)(F)F)N=C(c1ccc(Cl)cc1)N2	4.92	6.68	2.61
O=C(Nc1nnc(-c2cccs2)o1)c1cccc(C(F)(F)F)c1	< 0.391	11.9	20.6
CCCCc1ccc(NC=C2C(=O)OC3(CCCCC3)OC2=O)cc1	6.18	> 100	
O=C(c1nnsc1S(=O)(=O)c1ccc(Cl)cc1)N1CCOCC1	7.98	11.6	11.3
N#CC1=C(c2ccccc2)/C(=C/c2ccccc2)OC1=O	17.6	> 100	15.4
CCOc1cc(/C=C2\SC(=N)N(c3nccs3)C2=O)ccc1OCCN1CCOCC1	0.393	1.02	19.1
Cc1cccc(N2CCN(C(=O)c3ccc(CNc4c(N5CCC(C)CC5)c(=O)c4=O)cc3)CC2C)c1 (centres undefined)	15.8	22.2	> 40
COc1ccc(NC(=O)c2ccc(COCC(F)(F)C(F)F)cc2)cc1		> 100	
O=C(Nc1nnc(-c2ccccc2)o1)c1ccc(Cl)cc1	< 0.195	95.1	34.3
CCOC(=O)c1ccc(NC(=O)NS(=O)(=O)c2ccc(C)cc2)cc1	7.99	> 100	
Cc1ccc(-n2cc(C(=O)c3ccc(N4CCN(C)CC4)cc3)nn2)cc1Cl	< 0.391	4.59	12
CCOc1ccc2nc(NC(=O)CSc3nc(SC)ns3)sc2c1	2.95	> 100	> 40
NC(=O)c1ccc(NC(=O)COC(=O)c2c3c(nc4ccccc24)/C(=C\c2cccs2)CCC3)cc1	0.572	9.77	7.95
COc1cc(OC)c2c(-c3ccccc3)cc(=O)oc2c1C(CCN1CCCCC1)c1ccc(N(C)C)cc1 (centres undefined)	8.78	12.1	20.4
O=C(Nc1ccccc1Cl)Oc1ccc(-c2ccccc2)cc1	59.5	> 100	> 40
CCOC(=O)CSc1nnc(-c2cc(OC)c(OC)c(OC)c2)o1	1.62	4.38	
COc1cc(/C=C2\COC/C(=C\c3ccc(O)c(OC)c3)C2=O)ccc1O	5.7	10.8	21.8

SMILES	IC50 [µM]	IC90 [µM]	CC50 [µM]
Clc1cccc(-c2nc(NCCN3CCOCC3)c3ccccc3n2)c1	12.6	17.6	> 40
COC(=O)CN1C(c2ccc(OC)cc2)=Nc2ccc(Cl)cc2C1c1ccccc1 (centres undefined)	3.18	6.98	
O=C(OCC(=O)c1c[nH]c2ccccc12)c1cc2ccccc2cc1O	11.3	> 100	> 40
O=c1cc(N=Nc2ccc(Cl)cc2)[nH]c(=O)[nH]1	13	14.5	7.51
COc1cccc(OCCNC(=O)c2cc([N+](=O)[O-])cc([N+](=O)[O-])c2)c1	< 0.195	0.747	
COc1ccc(Cn2c(SCc3ccccc3C)nc3cc(OC)c(OC)cc3c2=N)cc1	2.24	3.02	6.78
CCOC(=O)c1ccc(NC(=O)c2cc3ccccc3o2)cc1	4.67	> 100	
O=C(Nc1nc(-c2ccccn2)cs1)C1CCCC1	2.54	5.83	> 40
COc1ccc(-c2c(C#N)c(SCC(=O)c3cc4ccccc4oc3=O)nc(C)c2C(=O)Nc2ccccc2)cc1	12.2	14.2	3.41
CCc1ccc2[nH]c(O)c(N=Nc3nc(-c4ccccc4)cs3)c2c1	1.81	3.44	37
COc1cccc(C(=O)Nc2nc(-c3ccccc3)c(-c3ccccc3)o2)c1	< 0.195	6.62	> 40
COc1ccc(C(C(=O)NC2CCCCC2)N(C(=O)c2sc(C)nc2C)c2ccccc2C)cc1 (centres undefined)	6.96	11.4	> 40
CC(=O)OCCNc1cc(SCc2ccco2)c2nonc2c1[N+](=O)[O-]	0.657	1.66	
COc1cc(CNc2ccc(N3CCN(C(C)=O)CC3)cc2)ccc1OCc1ccc(F)cc1			> 40
O=C1CSc2ccc(C(=O)Nc3cccc(S(=O)(=O)Nc4ccc(Br)cc4)c3)cc2N1	7.03	11.9	16.5
Cc1ccc(C(=O)CC(SCC(=O)O)c2ccc([N+](=O)[O-])cc2)cc1 (centres undefined)	7.91	> 100	36.8
CCOC(=O)N1CCN=C1SCc1ccc(C(F)(F)F)cc1		> 100	
COC(=O)CSc1nc(-c2ccccc2)c2c(c1C#N)CCCC2	5.24	8.33	
Clc1ccc(-c2nnc3sc(Cc4cccs4)nn23)cc1	19.6	> 100	
